# Non-standard residues stand in square brackets, D forms with d. Residues, ends and D or L forms follow the SMILES beside them. *: point of attachment. Phe(3-F) = N[C@@H](Cc1cccc(F)c1)C(=O)O; Phe(2-F) = N[C@@H](Cc1ccccc1F)C(=O)O; Sta = CC(C)C[C@H](N)[C@@H](O)CC(=O)O; Isovaleryl = CC(C)CC(=O)*
# Tests used:
# Type in all cases: biochemical
# Saps of Candida albicans = test: Overall Sap inhibition (summary of table 1); conditions: table 1 summary
# Experimental: (§1) For this purpose, that inhibitor concentration was determined in vitro at which the proteolytic activity of the enzyme or its velocity of metabolizing a substrate, respectively, was reduced for 50%.
# (§2) The proteolytic activity of the tested Saps was determined at the pH optimum of those Saps. Resorufin-marked casein was used as substrate. Proteolysis of casein can be detected by an increase in fluorescence due to released resorufin (a fluorescence marker) by proteolysis.
# Sap1, Sap3 and Sap6 of Candida albicans were independently dissolved in 2-(N-morpholino)ethanesulfonic acid (MES) having a concentration of 10 mmol/l and a pH of 6.5 resulting in enzyme solutions having a Sap concentration of 100 mmol/l. After one hour incubation at room temperature, 80 μl of a substrate solution comprising resorufin-marked casein in a sodium citrate buffer having a concentration of 500 mmol/l and a pH of 3.5 (in case of Sap3), 4.5 (in case of Sap1) and 5.0 (in case of Sap6) were added to 20 μl of enzyme solution. The resulting Sap concentration was 5 nmol/l. The resulting casein concentration was chosen such that the Saps could work in excess of substrate. […]
# (§3) To carry out fluorescence measurements, 100 μl of the supernatant were mixed with 100 μl Tris-HCl (trishydroxymethylaminomethane-HCl) having a concentration of 1 mol/l and a pH of 10.0. The fluorescence of this mixture was measured directly after adding Tris-HCl using an excitation wavelength of 530 nm and an emission wavelength of 590 nm on a CytoFluor 2350 apparatus (Millipore, Bedford, Mass., USA), wherein sensitivity was set to 2 and bandwidth was set to 7.
# (§4) The average of three independent fluorescence measurements was calculated. The fluorescence of enzyme without inhibitor (i.e. inhibitor concentration of 0 nmol/l) was set to 100% enzyme activity. The activity of inhibited enzyme was calculated accordingly from the fluorescence of inhibited enzyme with respect to fluorescence of enzyme without inhibitor. Finally, the enzyme activity was plotted against the inhibitor concentration and the IC50 value was determined.
# Sap5 = Sap5 (Candida albicans, UniProt P43094); test: Inhibition of proteolytic activity of Sap5
# Experimental: as §1, §2
# (§5) The mixture of enzyme and substrate or of enzyme, substrate and inhibitor was incubated at 37° C. under agitation at 300 rpm (rounds per minute) for 60 min in each case. Afterwards, 20 μl of a trichloroacetic acid solution (30%, w/v) were added. The mixture was placed on ice for 5 minutes and centrifuged afterwards for 3 min at 6000 rpm. The supernatant was removed.
# as §3, §4
# Sap1 of Candida albicans = Sap1 of Candida albicans (Candida albicans, UniProt P0CY27); test: Inhibition of proteolytic activity of Sap1 (resorufin-marked casein, fluorescence)
# Experimental: as §1, §2
# (§6) Sap1, Sap3 and Sap6 of Candida albicans were independently dissolved in 2-(N-morpholino)ethanesulfonic acid (MES) having a concentration of 10 mmol/l and a pH of 6.5 resulting in enzyme solutions having a Sap concentration of 100 mmol/l. After one hour incubation at room temperature, 80 μl of a substrate solution comprising resorufin-marked casein in a sodium citrate buffer having a concentration of 500 mmol/l and a pH of 3.5 (in case of Sap3), 4.5 (in case of Sap1) and 5.0 (in case of Sap6) were added to 20 μl of enzyme solution. The resulting Sap concentration was 5 nmol/l. The resulting casein concentration was chosen such that the Saps could work in excess of substrate. Different Sap inhibitors were added, resulting in a final inhibitor concentration of 1 nmol/1, 2 nmol/1, 5 nmol/1, 10 nmol/l, nmol/l or 50 nmol/l in each case. One enzyme-substrate sample was left without addition of inhibitor. All experiments were performed in triplicate.
# as §5, §3, §4
# Sap3 of Candida albicans = Sap3 of Candida albicans (Candida albicans, UniProt P0CY29); test: Inhibition of proteolytic activity of Sap3 (resorufin-marked casein, fluorescence)
# Experimental: as §1, §2, §6, §5, §3, §4
# Sap6 of Candida albicans = Sap6 of Candida albicans (Candida albicans, UniProt Q5AC08); test: Inhibition of proteolytic activity of Sap6 (resorufin-marked casein, fluorescence)
# Experimental: as §1, §2, §6, §5, §3, §4
# Sap3 of Candida albicans, sequence (P0CY29 59-398): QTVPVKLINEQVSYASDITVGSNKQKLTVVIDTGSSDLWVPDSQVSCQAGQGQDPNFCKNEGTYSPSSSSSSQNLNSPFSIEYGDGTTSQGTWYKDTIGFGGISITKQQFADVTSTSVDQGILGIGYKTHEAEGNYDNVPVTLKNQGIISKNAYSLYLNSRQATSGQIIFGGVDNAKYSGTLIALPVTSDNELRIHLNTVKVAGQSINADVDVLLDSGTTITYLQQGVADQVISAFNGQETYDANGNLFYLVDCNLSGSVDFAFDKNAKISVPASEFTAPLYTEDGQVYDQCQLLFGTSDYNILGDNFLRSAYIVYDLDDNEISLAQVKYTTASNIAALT
# Sap6 of Candida albicans, sequence (Q5AC08 77-418): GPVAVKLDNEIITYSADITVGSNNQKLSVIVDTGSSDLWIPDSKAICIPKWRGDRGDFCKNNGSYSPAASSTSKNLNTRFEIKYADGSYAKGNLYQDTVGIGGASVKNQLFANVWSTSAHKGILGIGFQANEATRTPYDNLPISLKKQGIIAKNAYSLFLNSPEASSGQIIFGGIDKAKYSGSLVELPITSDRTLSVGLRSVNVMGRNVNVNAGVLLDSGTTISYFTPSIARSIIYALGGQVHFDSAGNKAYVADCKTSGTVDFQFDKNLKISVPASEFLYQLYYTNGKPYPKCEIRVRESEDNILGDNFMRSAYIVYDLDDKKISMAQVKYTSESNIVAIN
# Sap5, sequence (P43094 77-418): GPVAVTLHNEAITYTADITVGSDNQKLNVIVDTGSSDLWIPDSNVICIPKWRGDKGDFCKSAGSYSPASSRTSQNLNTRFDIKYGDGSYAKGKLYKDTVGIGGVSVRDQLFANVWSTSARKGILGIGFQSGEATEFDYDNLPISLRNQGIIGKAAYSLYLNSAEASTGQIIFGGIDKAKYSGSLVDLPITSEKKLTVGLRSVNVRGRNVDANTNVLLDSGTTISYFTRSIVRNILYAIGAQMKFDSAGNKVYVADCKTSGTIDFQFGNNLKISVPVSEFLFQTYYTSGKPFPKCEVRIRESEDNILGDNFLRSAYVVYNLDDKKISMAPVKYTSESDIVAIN
# Sap1 of Candida albicans, sequence (P0CY27 51-391): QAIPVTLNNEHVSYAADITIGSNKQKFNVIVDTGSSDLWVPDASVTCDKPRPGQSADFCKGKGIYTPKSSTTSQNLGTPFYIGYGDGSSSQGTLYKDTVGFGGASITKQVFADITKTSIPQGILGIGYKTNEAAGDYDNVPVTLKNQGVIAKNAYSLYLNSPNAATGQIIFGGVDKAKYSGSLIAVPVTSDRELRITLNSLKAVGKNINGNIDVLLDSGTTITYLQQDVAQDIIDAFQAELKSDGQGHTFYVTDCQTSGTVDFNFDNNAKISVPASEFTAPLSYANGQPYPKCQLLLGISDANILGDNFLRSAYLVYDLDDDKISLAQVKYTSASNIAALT
smiles,measurement,setting,value
"CC(C)CN(C[C@@H](O)[C@H](Cc1ccccc1)NC(=O)O[C@H]1CCOC1)S(=O)(=O)c1ccc(N)cc1 [Amprenavir, reference compound]","IC50 values, range",Saps of Candida albicans,in the range of micromole per litre
same,IC50,Sap5,~33000 nM
same,IC50,Sap1 of Candida albicans,~5000 nM
same,IC50,Sap3 of Candida albicans,~20000 nM
same,IC50,Sap6 of Candida albicans,> 50000 nM
"Cc1cccc(C)c1OCC(=O)N[C@@H](Cc1ccccc1)[C@@H](O)C[C@H](Cc1ccccc1)NC(=O)[C@H](C(C)C)N1CCCNC1=O [Lopinavir, reference compound]","IC50 values, range",Saps of Candida albicans,in the range of micromole per litre
same,IC50,Sap5,> 312000 nM
same,IC50,Sap1 of Candida albicans,312000 nM
same,IC50,Sap3 of Candida albicans,> 312000 nM
same,IC50,Sap6 of Candida albicans,> 312000 nM
"CC(C)CC(=O)N[C@@H](Cc1cccc(F)c1)C(=O)N[C@H](C(=O)N[C@@H](CC(C)C)[C@@H](O)CC(=O)N[C@@H](C)C(=O)N[C@@H](CC(C)C)[C@@H](O)CC(=O)O)C(C)C [P3(m-FPhe)-pepstatin, (N-Iva-mFPhe)-Val-Sta-Ala-Sta] (Isovaleryl-[Phe(3-F)]V[Sta]A[Sta]-OH)",IC50,Sap5,~10 nM
same,IC50,Sap1 of Candida albicans,10 nM
same,IC50,Sap3 of Candida albicans,~10 nM
same,IC50,Sap6 of Candida albicans,10 nM
"CC(C)CC(=O)N[C@@H](Cc1ccccc1F)C(=O)N[C@H](C(=O)N[C@@H](CC(C)C)[C@@H](O)CC(=O)N[C@@H](C)C(=O)N[C@@H](CC(C)C)[C@@H](O)CC(=O)O)C(C)C [P3(o-FPhe)-pepstatin, (N-Iva-oFPhe)-Val-Sta-Ala-Sta] (Isovaleryl-[Phe(2-F)]V[Sta]A[Sta]-OH)",IC50,Sap5,~50 nM
same,IC50,Sap1 of Candida albicans,~20 nM
same,IC50,Sap3 of Candida albicans,~20 nM
same,IC50,Sap6 of Candida albicans,~100 nM
CC(C)CC(=O)N[C@H](C(=O)N[C@H](C(=O)N[C@@H](CC(C)C)[C@@H](O)CC(=O)N[C@@H](C)C(=O)N[C@@H](CC(C)C)[C@@H](O)CC(=O)O)C(C)C)C(C)C [Pepstatin A] (Isovaleryl-VV[Sta]A[Sta]-OH),IC50,Sap5,5 nM
same,IC50,Sap1 of Candida albicans,~7 nM
same,IC50,Sap3 of Candida albicans,~1 nM
same,IC50,Sap6 of Candida albicans,~7 nM
CC(C)c1nc(CN(C)C(=O)N[C@H](C(=O)N[C@@H](Cc2ccccc2)C[C@H](O)[C@H](Cc2ccccc2)NC(=O)OCc2cncs2)C(C)C)cs1 [Ritonavir],"IC50 values, range",Saps of Candida albicans,in the range of micromole per litre

# From patent US8809498B2, “Pepstatin A derivatives” (priority 2008, dated 2014)
